Drawing on publication PMC6321543, “Cloning, Characterization and Anion Inhibition Studies of a β-Carbonic Anhydrase from the Pathogenic Protozoan Entamoeba histolytica” (Molecules, 2018), this text covers Ki for 30 compounds.

A word on the Ki: it is the equilibrium dissociation constant of an inhibitor or competing ligand from its target.

In one test the target is T1, EhiCA (Entamoeba histolytica, UniProt C4LXK3).
T1 construct: gene EHI_073380; His-tag cleaved with thrombin; 21 kDa (21/25 kDa doublet); one Zn per chain; Zn ligands Cys50, His103, Cys106, dyad Asp52-Arg54; dimer and trimer seen on SDS-PAGE
T1 sequence (C4LXK3 1-188): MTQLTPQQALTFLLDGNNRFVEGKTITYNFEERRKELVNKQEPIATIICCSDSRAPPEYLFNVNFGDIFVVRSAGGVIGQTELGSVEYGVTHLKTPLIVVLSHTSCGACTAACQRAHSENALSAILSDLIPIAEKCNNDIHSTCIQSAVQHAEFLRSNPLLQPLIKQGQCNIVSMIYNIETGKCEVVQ
Description: biochemical.
Settings: not given
In turn, `O=P(O)(O)OP(=O)(O)O` [P2O7^4−] came in with an inhibition constant Ki of over 100 mM.

For the compound `O=S(=O)(O)O` [SO4^2−], the Ki is 21.6 mM.

The compound `N#CS` [SCN^−] showed a Ki of 7.9 mM.

For `I` [I^−], the inhibitory constant (Ki) is 7.4 mM.

Still in this test, the particulars now being: CO2 hydration, TRIS pH 8.3, 20 °C (methods: 25 °C), 0.1 M NaClO4, 15 min pre-incubation; as sodium salt; read-out: KI [mM] ^#.
For the compound `F[P-](F)(F)(F)(F)F` [PF6^−], the Ki was over 100 mM.

The same test, now with this note: read-out: KI [mM] ^#.
Turning to `NS(=O)(=O)O` [H2NSO3H], the Ki is over 100 mM.

In the case of `O=S(=O)(O)F` [FSO3^−], the inhibitory constant (Ki) was 0.086 mM.

For the compound `F[B-](F)(F)F` [BF4^−], the inhibition constant (Ki) was over 100 mM.

Regarding `O=NO` [NO2^−], the Ki is 1.7 mM.

On to `O=S(O)O` [HSO3^−], for which the Ki came out at 11.5 mM.

For the compound `[O]=[Re](=[O])(=[O])[OH]` [ReO4^−], the Ki is 7.1 mM.

Consider `[O]=[V]([OH])([OH])[O][V](=[O])([OH])[OH]` [V2O7^4−], for which the Ki was over 100 mM.

For the compound `NS(N)(=O)=O` [H2NSO2NH2], the Ki amounted to 0.028 mM.

Consider `OB(O)c1ccccc1` [Ph-B(OH)2], for which the inhibitory constant (Ki) was determined as 0.047 mM.

`F` [F^−]: the inhibition constant (Ki) is over 100 mM.

As for `S` [HS^−], the inhibition constant Ki stood at 6.9 mM.

As for `Cl` [Cl^−], the inhibition constant (Ki) was over 100 mM.

Consider `O=[Te](=O)(O)O` [TeO4^2−], for which the Ki stood at 0.61 mM.

Take `O=S(=O)(O)NS(=O)(=O)O` [NH(SO3)2^2−]: the Ki amounted to 2.2 mM.

Consider `O=[Se](=O)(O)O` [SeO4^2−], for which the Ki came to 6 mM.

Turning to `O=S(=O)(O)C(F)(F)F` [CF3SO3^−], the inhibition constant (Ki) was over 100 mM.

With `N#C[SeH]` [SeCN^−], the inhibition constant (Ki) came to 0.87 mM.

`[O-][Cl+3]([O-])([O-])O` [ClO4^−]: the inhibition constant Ki was over 100 mM.

Regarding `S=C(S)S` [CS3^2−], the Ki came to 6 mM.

With `O=[N+]([O-])O` [NO3^−], the Ki worked out at 3.6 mM.

In the case of `N#CO` [CNO^−], the inhibition constant (Ki) was found to be 0.77 mM.

As to `[O]=[Ru](=[O])(=[O])[OH]` [RuO4^−], the Ki is 7 mM.

Turning to `Br` [Br^−], the inhibitory constant (Ki) came to 36.8 mM.

With `O=S(=O)(O)OOS(=O)(=O)O` [S2O8^2−], the inhibition constant Ki came to 8.4 mM.

On to `CCN(CC)C(=S)S` [Et2NCS2^−], for which the Ki turned out to be 0.51 mM.
